Reference: US8389513B2, “2-amino-5,5-difluoro-5,6-dihydro-4H-[1,3]oxazin-4-yl)-phenyl]-amides” (Hoffmann-La Roche Inc., priority 2009, dated 2013)

Key:
BACE1 = biological target: T1, BACE1 (Homo sapiens, UniProt P56817); assay: Cellular Aβ-lowering assay (Aβ40 ELISA); format: cell-based; conditions: HEK293 cells stably expressing human APP695; Aβ40 in culture supernatant; read-out: BACE1 cell act. Aβ40 IC50
T1 construct: Human HEK293 cells which are stably transfected with a vector expressing a cDNA of the human APP wt gene (APP695); endogenous in cells; host or cells: HEK293 stably transfected with human APP695 wt
Procedure: Cellular Aβ-Lowering Assay:
Human HEK293 cells which are stably transfected with a vector expressing a cDNA of the human APP wt gene (APP695) were used to assess the potency of the compounds in a cellular assay. The cells were seeded in 96-well microtiter plates in cell culture medium (Iscove, plus 10% (v/v) fetal bovine serum, glutamine, penicillin/streptomycin) to about 80% confluence and the compounds were added at a 10× concentration in 1/10 volume of medium without FCS containing 8% DMSO (final concentration of DMSO was kept at 0.8% v/v). After 18-20 hrs incubation at 37° C. and 5% CO2 in a humidified incubator the culture supernatant was harvested for the determination of Aβ40 concentrations. […] Subsequently the wells of the microtiter plate were washed extensively with Tris-buffered saline containing 0.05% Tween 20 and the assay was developed with tetramethylbenzidine/H2O2 in citric acid buffer. After stopping the reaction with one volume 1 NH2SO4 the reaction was measured in an ELISA reader at 450 nm wavelength. The concentrations of Aβ in the culture supernatants were calculated from a standard curve obtained with known amounts of pure Aβ peptide.

BACE2 = biological target: T2, BACE2 (Rattus norvegicus, UniProt Q6IE75); assay: Assay for BACE inhibition by measuring cellular TMEM27 cleavage; format: cell-based; conditions: INS-TMEM27 cells (INS1e-derived); shed TMEM27 by ELISA; read-out: BACE2 cell act. IC50
T2 construct: endogenous cellular BACE2 in the Ins1e rat cell line; endogenous in cells; host or cells: INS-TMEM27 (INS1e-derived rat cell line with TetOn-inducible full-length hTMEM27)
T2 sequence (Q6IE75 63-514): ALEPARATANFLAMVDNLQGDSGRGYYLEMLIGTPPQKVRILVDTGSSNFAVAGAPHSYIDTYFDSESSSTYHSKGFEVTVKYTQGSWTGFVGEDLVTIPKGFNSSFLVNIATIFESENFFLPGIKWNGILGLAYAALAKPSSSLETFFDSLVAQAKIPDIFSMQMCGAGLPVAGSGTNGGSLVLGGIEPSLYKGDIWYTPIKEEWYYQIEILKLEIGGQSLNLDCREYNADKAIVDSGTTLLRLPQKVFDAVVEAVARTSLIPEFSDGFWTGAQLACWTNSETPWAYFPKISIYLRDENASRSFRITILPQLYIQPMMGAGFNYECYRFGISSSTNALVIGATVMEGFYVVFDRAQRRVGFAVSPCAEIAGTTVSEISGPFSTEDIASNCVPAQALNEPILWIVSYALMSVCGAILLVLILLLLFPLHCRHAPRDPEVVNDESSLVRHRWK
Description: Assay for BACE Inhibition by Measuring Cellular TMEM27 Cleavage:
The assay uses the principle of inhibition of human TMEM27 cleavage by endogenous cellular BACE2 in the Ins1e rat cell line and shedding from the cell surface into the culture medium, followed by detection in an ELISA assay. Inhibition of BACE2 prevents the cleavage and shedding in a dose-dependent manner.
The stable cell line “INS-TMEM27” represents an INS1e-derived cell line with inducible expression (using the TetOn system) of full-length hTMEM27 in a doxycycline-dependent manner. The cells are cultured throughout the experiment in RPMI1640+Glutamax (Invitrogen) Penicillin/Streptomycin, 10% Fetal bovine serum, […] pyruvate, […] beta-mercatptoethanol, 100 micrograms/ml G418 and 100 microgram/ml hygromycin and are grown inadherent culture at 37° C. in a standard CO2 cell culture incubator. INS-TMEM27 cells are seeded in 96-well plates. After 2 days in culture, BACE2 inhibitor is added in a range of concentrations as required by the assay and after a further two hours, doxycycline is added to a final concentration of 500 ng/ml. The cells are incubated for a further 46 hours and the supernatant harvested for detection of shed TMEM27.
An ELISA assay (using a pair of mouse anti-human-TMEM27 antibodies, raised against the extracellular domain of TMEM27) is used for detection of TMEM27 in the culture medium. An EC50 for BACE2 inhibition is calculated using the ELISA readout for each inhibitor concentration with standard curve-fitting software such as XLFit for the Excel spreadsheet program.

T1 sequence (P56817 46-501): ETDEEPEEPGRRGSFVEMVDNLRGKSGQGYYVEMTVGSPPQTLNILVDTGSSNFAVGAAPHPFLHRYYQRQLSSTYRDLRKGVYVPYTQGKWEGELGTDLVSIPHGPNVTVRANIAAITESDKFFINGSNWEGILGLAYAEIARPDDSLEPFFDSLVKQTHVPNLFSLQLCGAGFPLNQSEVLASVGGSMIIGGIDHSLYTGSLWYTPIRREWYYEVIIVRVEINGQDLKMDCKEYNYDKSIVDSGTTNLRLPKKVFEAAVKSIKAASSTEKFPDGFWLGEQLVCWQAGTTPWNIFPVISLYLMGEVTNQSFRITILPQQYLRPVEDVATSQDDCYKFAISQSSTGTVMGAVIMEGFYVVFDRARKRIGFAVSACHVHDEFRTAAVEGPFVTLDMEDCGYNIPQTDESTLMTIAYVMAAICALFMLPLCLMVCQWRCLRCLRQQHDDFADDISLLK

| IC50 (BACE1) [nM] | IC50 (BACE2) [nM] | SMILES |
| --- | --- | --- |
| 710 | 50700 | CC1(C)OC(N)=N[C@](C)(c2cc(NC(=O)c3ccc(Cl)nn3)ccc2F)C1(F)F [Example 37, 6-Chloro-pyridazine-3-carboxylic acid [3-((R)-2-amino-5,5-difluoro-4,6,6-trimethyl-5,6-dihydro-4H-[1,3]oxazin-4-yl)-4-fluoro-phenyl]-amide] |
| 29 | 2610 | CC1(C)OC(N)=N[C@](C)(c2cc(NC(=O)c3ncc(C(F)(F)F)cn3)ccc2F)C1(F)F [Example 33, 5-Trifluoromethyl-pyrimidine-2-carboxylic acid [3-((R)-2-amino-5,5-difluoro-4,6,6-trimethyl-5,6-dihydro-4H-[1,3]oxazin-4-yl)-4-fluoro-phenyl]-amide] |
| 16 | 20 | CC1(C)OC(N)=N[C@](C)(c2cc(NC(=O)c3ncc(Cl)cn3)ccc2F)C1(F)F [Example 32, 5-Chloro-pyrimidine-2-carboxylic acid [3-((R)-2-amino-5,5-difluoro-4,6,6-trimethyl-5,6-dihydro-4H-[1,3]oxazin-4-yl)-4-fluoro-phenyl]-amide] |
| 40 | 4750 | CC1(C)OC(N)=N[C@](C)(c2cc(NC(=O)c3cnc(C(F)(F)F)cn3)ccc2F)C1(F)F [Example 35, 5-Trifluoromethyl-pyrazine-2-carboxylic acid [3-((R)-2-amino-5,5-difluoro-4,6,6-trimethyl-5,6-dihydro-4H-[1,3]oxazin-4-yl)-4-fluoro-phenyl]-amide] |
| 41 | 49 | C[C@]1(c2cc(NC(=O)c3ncc(F)cc3Cl)ccc2F)N=C(N)OCC1(F)F [Example 7, 3-Chloro-5-fluoro-pyridine-2-carboxylic acid [3-((R)-2-amino-5,5-difluoro-4-methyl-5,6-dihydro-4H-[1,3]oxazin-4-yl)-4-fluoro-phenyl]-amide] |
| 290 | 14500 | C[C@]1(c2cc(NC(=O)c3ccc(OCC(F)(F)C(F)(F)F)cn3)ccc2F)N=C(N)OCC1(F)F [Example 44, 5-(2,2,3,3,3-Pentafluoro-propoxy)-pyridine-2-carboxylic acid [3-((R)-2-amino-5,5-difluoro-4-methyl-5,6-dihydro-4H-[1,3]oxazin-4-yl)-4-fluoro-phenyl]-amide] |
| 87 | 52 | C[C@]1(c2cc(NC(=O)c3ncccc3Cl)ccc2F)N=C(N)OCC1(F)F [Example 3, 3-Chloro-pyridine-2-carboxylic acid [3-((R)-2-amino-5,5-difluoro-4-methyl-5,6-dihydro-4H-[1,3]oxazin-4-yl)-4-fluoro-phenyl]-amide] |
| 110 | 113 | Cn1ccc(C(=O)Nc2ccc(F)c([C@@]3(C)N=C(N)OCC3(F)F)c2)n1 [Example 63, 1-Methyl-1H-pyrazole-3-carboxylic acid [3-((R)-2-amino-5,5-difluoro-4-methyl-5,6-dihydro-4H-[1,3]oxazin-4-yl)-4-fluoro-phenyl]-amide] |
| 47 | 5350 | CC1(C)OC(N)=N[C@](C)(c2cc(NC(=O)c3ccc(OC(F)F)cn3)ccc2F)C1(F)F [Example 27, 5-Difluoromethoxy-pyridine-2-carboxylic acid [3-((R)-2-amino-5,5-difluoro-4,6,6-trimethyl-5,6-dihydro-4H-[1,3]oxazin-4-yl)-4-fluoro-phenyl]-amide] |
| 15 | 25 | Cc1nc(C(=O)Nc2ccc(F)c([C@@]3(C)N=C(N)OCC3(F)F)c2)co1 [Example 58, 2-Methyl-oxazole-4-carboxylic acid [3-((R)-2-amino-5,5-difluoro-4-methyl-5,6-dihydro-4H-[1,3]oxazin-4-yl)-4-fluoro-phenyl]-amide] |
| 635 | 245 | C[C@]1(c2cc(NC(=O)c3ncccc3OCC(F)(F)F)ccc2F)N=C(N)OCC1(F)F [Example 54, 3-(2,2,2-Trifluoro-ethoxy)-pyridine-2-carboxylic acid [3-((R)-2-amino-5,5-difluoro-4-methyl-5,6-dihydro-4H-[1,3]oxazin-4-yl)-4-fluoro-phenyl]-amide] |
| 1130 | 6740 | C[C@]1(c2cc(NC(=O)c3ncc(Cl)nc3Cl)ccc2F)N=C(N)OCC1(F)F [Example 48, 3,5-Dichloro-pyrazine-2-carboxylic acid [3-((R)-2-amino-5,5-difluoro-4-methyl-5,6-dihydro-4H-[1,3]oxazin-4-yl)-4-fluoro-phenyl]-amide] |
| 927 | 230 | C[C@]1(c2cc(NC(=O)c3nn(CC(F)F)cc3Cl)ccc2F)N=C(N)OCC1(F)F [Example 68, 4-Chloro-1-(2,2-difluoro-ethyl)-1H-pyrazole-3-carboxylic acid [3-((R)-2-amino-5,5-difluoro-4-methyl-5,6-dihydro-4H-[1,3]oxazin-4-yl)-4-fluoro-phenyl]-amide] |
| 1050 | 1420 | C[C@@](O)(C(=O)Nc1ccc(F)c([C@@]2(C)N=C(N)OCC2(F)F)c1)C(F)(F)F [Example 76, (R)—N-[3-((R)-2-Amino-5,5-difluoro-4-methyl-5,6-dihydro-4H-[1,3]oxazin-4-yl)-4-fluoro-phenyl]-3,3,3-trifluoro-2-hydroxy-2-methyl-propionamide 2,2,2-trifluoroacetate] |
| 91 | 1540 | C[C@]1(c2cc(NC(=O)c3ncc(C(F)(F)F)cn3)ccc2F)N=C(N)OCC1(F)F [Example 16, 5-Trifluoromethyl-pyrimidine-2-carboxylic acid [3-((R)-2-amino-5,5-difluoro-4-methyl-5,6-dihydro-4H-[1,3]oxazin-4-yl)-4-fluoro-phenyl]-amide] |
| 31 | 26 | C[C@]1(c2cc(NC(=O)c3ncc(F)cc3F)ccc2F)N=C(N)OCC1(F)F [Example 4, 3,5-Difluoro-pyridine-2-carboxylic acid [3-((R)-2-amino-5,5-difluoro-4-methyl-5,6-dihydro-4H-[1,3]oxazin-4-yl)-4-fluoro-phenyl]-amide] |
| 11 | 66 | CC1(C)OC(N)=N[C@](C)(c2cc(NC(=O)c3ncc(Cl)cc3Cl)ccc2F)C1(F)F [Example 23, 3,5-Dichloro-pyridine-2-carboxylic acid [3-((R)-2-amino-5,5-difluoro-4,6,6-trimethyl-5,6-dihydro-4H-[1,3]oxazin-4-yl)-4-fluoro-phenyl]-amide] |
| 400 | 25700 | C[C@]1(c2cc(NC(=O)c3ccc(OCC(F)F)cn3)ccc2F)N=C(N)OCC1(F)F [Example 45, 5-(2,2-Difluoro-ethoxy)-pyridine-2-carboxylic acid [3-((R)-2-amino-5,5-difluoro-4-methyl-5,6-dihydro-4H-[1,3]oxazin-4-yl)-4-fluoro-phenyl]-amide] |
| 9 | 35 | C[C@]1(c2cccc(NC(=O)c3ccc(Cl)cn3)c2)N=C(N)OCC1(F)F [Example 52, 5-Chloro-pyridine-2-carboxylic acid [3-((R)-2-amino-5,5-difluoro-4-methyl-5,6-dihydro-4H-[1,3]oxazin-4-yl)-phenyl]-amide] |
